Data as given in patent US11034666B2, “Anti-inflammatory and antitumor 2-oxothiazoles and 2-oxothiophenes compounds” (Avexxin AS, priority 2013, dated 2021).
Like-named read-outs stand apart in the source and are kept apart here.

Tests used:
human GIVA cPLA2 = target: T1, human GIVA cPLA2 (Homo sapiens, UniProt P47712); assay: In vitro vesicle assay, cPLA2; format: biochemical
T1 sequence (P47712 1-749): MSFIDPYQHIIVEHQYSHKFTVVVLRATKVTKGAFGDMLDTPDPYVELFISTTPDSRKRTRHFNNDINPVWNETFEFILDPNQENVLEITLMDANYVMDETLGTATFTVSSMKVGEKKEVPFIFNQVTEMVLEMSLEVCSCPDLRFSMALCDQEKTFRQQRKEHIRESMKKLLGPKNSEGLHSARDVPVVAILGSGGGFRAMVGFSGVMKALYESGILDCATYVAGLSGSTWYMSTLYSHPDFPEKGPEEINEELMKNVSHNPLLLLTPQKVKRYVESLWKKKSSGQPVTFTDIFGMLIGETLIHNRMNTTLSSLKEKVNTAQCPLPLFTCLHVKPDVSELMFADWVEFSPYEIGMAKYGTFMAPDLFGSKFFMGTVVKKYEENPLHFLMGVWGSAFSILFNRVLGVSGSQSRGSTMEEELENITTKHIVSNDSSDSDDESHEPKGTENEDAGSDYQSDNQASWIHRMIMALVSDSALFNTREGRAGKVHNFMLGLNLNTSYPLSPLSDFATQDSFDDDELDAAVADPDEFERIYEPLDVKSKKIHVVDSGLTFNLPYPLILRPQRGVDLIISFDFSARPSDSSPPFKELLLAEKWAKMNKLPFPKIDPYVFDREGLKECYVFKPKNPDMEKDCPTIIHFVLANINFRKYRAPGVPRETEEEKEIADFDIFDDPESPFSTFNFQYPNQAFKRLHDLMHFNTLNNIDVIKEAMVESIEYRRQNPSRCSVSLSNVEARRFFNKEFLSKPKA
Protocol: The effect of the oxothiazoles synthesized on GIVA cPLA2 was measured in vesicles as previously described^51,52 with modifications.^53 The results are presented in Table 6 and are in full agreement with those using the micellar assay. […] From both assays, it is clear that the introduction of the ethyl ester group directly on the heterocyclic ring substantially increases the potency of inhibition. This group presumably develops additional interactions within the enzyme's active site. Comparing the results obtained in mixed micelles and in vesicles is obvious that Compound A stands out in this series of oxothiazoles
GIVA cPLA2 was measured as described^51,52 with modifications.^53 In short, recombinant human GIVA cPLA2 enzyme was pre-incubated with DMSO (1%) with or without inhibitor in assay buffer (80 sec at 37° C., 10 min at 25° C.). Lipid vesicles of L-α-1-palmitoyl-2-arachidonyl-[arachidonyl-1-^14C]-phosphatidylcholine (4.3 nmol) were dried under a steam of N2 (g). The dried lipid was re-suspended in 2 ml assay buffer and sonicated twice (7 min, output 3.5 and 50% duty cycles, on ice) in a Branson Sonifier 250 (Branson Ultrasonic Corporation, Danbury, Conn.). Sonicated lipid (0.2 μM) was added to the reaction and incubated for 1 h at 37° C. followed by addition of a chloroform/methanol stop buffer to terminate the enzymatic reaction. The reaction mixture was separated by centrifugation (5 min, 1640×g). The lower phase was transferred to a glass tube and dried under a steam of N2 (g), re-suspended in chloroform/methanol (9:1, by volume) and applied to a silica gel. Free [1-^14C]arachidonic acid and, L-α-1-palmitoyl-2-arachidonyl-[arachidonyl-1-^14C]-phosphatidylcholine were separated by thin layer chromatography and analyzed as previously described.^54

human GV sPLA2 = target: T2, human GV sPLA2 (Homo sapiens, UniProt P39877); assay: In vitro mixed micelle assay, GV sPLA2; format: biochemical; conditions: for inhibition at 0.091 mole fraction: mixed micelles, 0.091 mole fraction of inhibitor, Table 6, read-out: GV sPLA2 % Inhib
T2 sequence (P39877 21-138): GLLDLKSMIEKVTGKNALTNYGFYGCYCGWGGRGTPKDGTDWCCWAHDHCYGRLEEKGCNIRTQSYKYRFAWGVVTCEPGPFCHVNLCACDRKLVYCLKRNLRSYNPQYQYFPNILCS
Protocol: At first, the percent of inhibition for each PLA2 enzyme at 0.091 mole fraction of each inhibitor was determined. […] The XI(50) is the mole fraction of the inhibitor in the total substrate interface required to inhibit the enzyme activity by 50%. […] (ii) GVI iPLA2 substrate mixed-micelles were composed of 400 μM Triton X-100, 98.3 μM PAPC, and 1.7 μM ^14C-labeled PAPC in buffer containing 100 mM HEPES, pH 7.5, 2 mM ATP, and 4 mM DTT; (iii) GV sPLA2 substrate mixed-micelles were composed of 400 μM Triton X-100, 98.3 μM PAPC, and 1.7 μM ^14C-labeled PAPC in buffer containing 50 mMTris, pH 8.0, and 5 mM […] CaCl2.

[1] = % inhibition at 1 μM oxothiazole, read-out: cPLA2 vesicle assay % Inhib
[2] = inhibitors tested in 0-3 μM range, read-out: cPLA2 vesicle assay IC50 (μm)
[3] = tested 0-5 μM, Tables 2 and 4, read-out: cPLA2 in vitro assay (0-5 μM) IC50
[4] = vesicles assay, read-out: IC50 on GIVA cPLA2 in vesicles assay

Row | inhibition at 1 µM (human GIVA cPLA2; [1]) | IC50 (human GIVA cPLA2; [2]) | IC50 (human GIVA cPLA2; [3]) | inhibition at 0.091 mole fraction (human GV sPLA2) | inhibition at 1 µM (human GIVA cPLA2; at 1 μM, printed in the IC50 column of Table 2, read-out: cPLA2 in vitro assay, % inh at 1 μM) | SMILES | IC50 (human GIVA cPLA2; [4]) | GV sPLA2 % Inhibition (human GV sPLA2; Tables 2 and 4)
1 | 26% | > 3 µM | > 5 µM | 0% | – | O=C(COc1ccccc1)c1nccs1 [Compound D, 2-Phenoxy-1-(thiazol-2-yl)ethanone] | – | –
2 | 0% | – | – | 55% | – | CCCCCCCCCCCCOCC(=O)c1nc(CC(=O)OCC)cs1 [Compound X, Ethyl 2-(2-(2-(dodecyloxy)acetyl)thiazol-4-yl)acetate] | – | –
3 | 7% | > 3 µM | > 5 µM | 4% | – | O=C(COc1ccc(F)cc1)c1nccs1 [Compound C, 2-(4-Fluorophenoxy)-1-(thiazol-2-yl)ethanone] | – | –
4 | 26% | > 3 µM | – | 41% | 35% | O=C(COc1ccc(-c2ccccc2)cc1)c1nccs1 [Compound B, 2-(Biphenyl-4-yloxy)-1-(thiazol-2-yl)ethanone] | – | –
5 | 25% | > 3 µM | – | 50% | – | CCCCCCCCc1ccc(OCC(=O)c2nc(CC(=O)OCC)cs2)cc1 [Compound Y, Ethyl 2-(2-(2-(4-octylphenoxy)acetyl)thiazol-4-yl)acetate] | – | –
6 | 43% | – | – | 46% | – | CCCCCCCCc1ccc(OCC(=O)c2nccs2)cc1 [Compound T, 2-(4-Octylphenoxy)-1-(thiazol-2-yl)ethanone] | 1.2 µM | –
7 | 21% | > 3 µM | – | 48% | – | CCCCCCCCCCCCOCC(=O)c1nc(C(=O)OCC)cs1 [Compound W, Ethyl 2-(2-(dodecyloxy)acetyl)thiazole-4-carboxylate] | – | –

Row | SMILES | inhibition at 1 µM (human GIVA cPLA2; [1]) | IC50 (human GIVA cPLA2; [2]) | IC50 (human GIVA cPLA2; [3]) | inhibition at 0.091 mole fraction (human GV sPLA2) | inhibition at 1 µM (human GIVA cPLA2; at 1 μM, printed in the IC50 column of Table 2, read-out: cPLA2 in vitro assay, % inh at 1 μM) | IC50 (human GIVA cPLA2; [4]) | GV sPLA2 % Inhibition (human GV sPLA2; Tables 2 and 4)
8 | CCCCCCCCc1ccc(OCC(=O)c2nc(C(=O)OC)cs2)cc1 [Compound A, Methyl 2-(2-(4-octylphenoxy)acetyl)thiazole-4-carboxylate] | 74% | – | ~0.3 µM | 41% | – | 0.3 µM | 41.1%
